# What was measured:
# Toll-like receptor 7 = molecular target: T1, Toll-like receptor 7 (Homo sapiens, UniProt Q9NYK1); test: Antagonist activity at human TLR7 expressed in HEK-blue-HTLR7 cells assessed as inhibition of CL264-induced NFkappaB activation measured after overnight incubation by SEAP-based spectrophotometry assay
# T1 sequence (Q9NYK1 whole entry): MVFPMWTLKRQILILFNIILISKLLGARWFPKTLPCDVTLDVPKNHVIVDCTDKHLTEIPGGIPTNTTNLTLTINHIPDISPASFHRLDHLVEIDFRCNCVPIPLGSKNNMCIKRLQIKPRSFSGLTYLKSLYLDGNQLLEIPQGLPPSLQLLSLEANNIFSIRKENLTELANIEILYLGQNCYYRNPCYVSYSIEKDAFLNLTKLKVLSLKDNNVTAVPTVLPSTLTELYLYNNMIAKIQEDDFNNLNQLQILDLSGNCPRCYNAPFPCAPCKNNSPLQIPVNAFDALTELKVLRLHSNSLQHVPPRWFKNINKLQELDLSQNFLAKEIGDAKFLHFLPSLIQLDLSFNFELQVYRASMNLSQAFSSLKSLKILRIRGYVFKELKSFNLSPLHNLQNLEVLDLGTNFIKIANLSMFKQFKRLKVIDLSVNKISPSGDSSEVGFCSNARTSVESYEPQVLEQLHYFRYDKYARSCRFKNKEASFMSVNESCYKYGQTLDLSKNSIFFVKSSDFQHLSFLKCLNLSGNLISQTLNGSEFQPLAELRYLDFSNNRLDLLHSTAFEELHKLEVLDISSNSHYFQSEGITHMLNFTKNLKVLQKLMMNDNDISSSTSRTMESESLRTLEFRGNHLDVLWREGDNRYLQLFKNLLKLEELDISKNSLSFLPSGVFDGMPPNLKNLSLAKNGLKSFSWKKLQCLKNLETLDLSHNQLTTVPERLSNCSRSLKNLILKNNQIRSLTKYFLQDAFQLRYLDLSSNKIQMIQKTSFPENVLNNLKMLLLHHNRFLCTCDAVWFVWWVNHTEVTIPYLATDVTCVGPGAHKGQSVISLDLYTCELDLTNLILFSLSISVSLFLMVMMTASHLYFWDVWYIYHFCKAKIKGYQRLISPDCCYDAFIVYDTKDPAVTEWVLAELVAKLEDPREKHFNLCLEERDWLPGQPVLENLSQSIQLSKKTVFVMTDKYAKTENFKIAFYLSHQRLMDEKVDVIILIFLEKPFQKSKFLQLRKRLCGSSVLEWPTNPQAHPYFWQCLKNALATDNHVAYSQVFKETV
# Toll-like receptor 9 = molecular target: T2, Toll-like receptor 9 (Homo sapiens, UniProt Q9NR96); test: Antagonist activity at human TLR9 expressed in […] cells assessed as inhibition of CpGB-induced NFkappaB activation measured after overnight incubation by SEAP-based spectrophotometry assay; type: cell-based, HEK293
# T2 sequence (Q9NR96 whole entry): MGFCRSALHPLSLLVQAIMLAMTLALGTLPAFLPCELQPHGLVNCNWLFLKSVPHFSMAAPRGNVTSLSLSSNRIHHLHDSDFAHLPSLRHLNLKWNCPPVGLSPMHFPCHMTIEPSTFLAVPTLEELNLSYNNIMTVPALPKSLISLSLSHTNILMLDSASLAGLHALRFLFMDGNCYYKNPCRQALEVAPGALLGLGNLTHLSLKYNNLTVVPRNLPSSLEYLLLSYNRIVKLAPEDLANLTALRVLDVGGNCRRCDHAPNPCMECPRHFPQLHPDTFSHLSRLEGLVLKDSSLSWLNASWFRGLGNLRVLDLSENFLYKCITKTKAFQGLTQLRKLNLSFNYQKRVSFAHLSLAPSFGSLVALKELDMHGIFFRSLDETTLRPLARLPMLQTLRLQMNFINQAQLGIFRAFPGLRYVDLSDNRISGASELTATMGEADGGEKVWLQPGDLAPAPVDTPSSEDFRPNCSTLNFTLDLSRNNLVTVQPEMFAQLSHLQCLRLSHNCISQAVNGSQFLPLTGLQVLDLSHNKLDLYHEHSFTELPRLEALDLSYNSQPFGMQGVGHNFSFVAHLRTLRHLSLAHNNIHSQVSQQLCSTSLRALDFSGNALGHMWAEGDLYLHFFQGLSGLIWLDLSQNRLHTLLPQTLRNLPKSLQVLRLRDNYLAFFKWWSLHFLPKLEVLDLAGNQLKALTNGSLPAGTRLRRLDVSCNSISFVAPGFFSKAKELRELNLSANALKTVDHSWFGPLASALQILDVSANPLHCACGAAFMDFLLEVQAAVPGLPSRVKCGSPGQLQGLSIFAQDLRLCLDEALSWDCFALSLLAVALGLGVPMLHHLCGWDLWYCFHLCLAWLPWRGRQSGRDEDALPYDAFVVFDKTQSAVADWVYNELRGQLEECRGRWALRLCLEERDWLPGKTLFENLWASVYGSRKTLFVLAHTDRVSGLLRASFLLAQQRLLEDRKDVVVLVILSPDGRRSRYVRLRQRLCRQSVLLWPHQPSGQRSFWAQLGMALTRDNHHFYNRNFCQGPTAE
# [1] = Apparent permeability across apical to basolateral side in human Caco2 cells at 10 uM measured after 10 mins by LC-MS/MS analysis; conditions: Caco-2
# [2] = Efflux ratio of apparent permeability across apical to basolateral over basolateral to apical side in human Caco2 cells measured after 10 mins by LC-MS/MS analysis; conditions: Caco-2
# [3] = Metabolic stability in human liver microsomes assessed as compound remaining incubated for 60 mins by LC-MS/MS analysis
# [4] = Metabolic stability in human liver microsomes assessed as intrinsic clearance incubated for 60 mins by LC-MS/MS analysis
# [5] = Stability in mouse plasma measured after 2 hrs by LC-MS/MS analysis
# [6] = Apparent permeability across basolateral to apical side in human Caco2 cells at 10 uM measured after 10 mins by LC-MS/MS analysis; conditions: Caco-2
# Toll-like receptor 8 = molecular target: T3, Toll-like receptor 8 (Homo sapiens, UniProt Q9NR97); test: Antagonist activity at human TLR8 expressed in […] cells assessed as inhibition of CL075-induced NFkappaB activation measured after overnight incubation by SEAP-based spectrophotometry assay; type: cell-based, HEK293
# T3 sequence (Q9NR97 whole entry): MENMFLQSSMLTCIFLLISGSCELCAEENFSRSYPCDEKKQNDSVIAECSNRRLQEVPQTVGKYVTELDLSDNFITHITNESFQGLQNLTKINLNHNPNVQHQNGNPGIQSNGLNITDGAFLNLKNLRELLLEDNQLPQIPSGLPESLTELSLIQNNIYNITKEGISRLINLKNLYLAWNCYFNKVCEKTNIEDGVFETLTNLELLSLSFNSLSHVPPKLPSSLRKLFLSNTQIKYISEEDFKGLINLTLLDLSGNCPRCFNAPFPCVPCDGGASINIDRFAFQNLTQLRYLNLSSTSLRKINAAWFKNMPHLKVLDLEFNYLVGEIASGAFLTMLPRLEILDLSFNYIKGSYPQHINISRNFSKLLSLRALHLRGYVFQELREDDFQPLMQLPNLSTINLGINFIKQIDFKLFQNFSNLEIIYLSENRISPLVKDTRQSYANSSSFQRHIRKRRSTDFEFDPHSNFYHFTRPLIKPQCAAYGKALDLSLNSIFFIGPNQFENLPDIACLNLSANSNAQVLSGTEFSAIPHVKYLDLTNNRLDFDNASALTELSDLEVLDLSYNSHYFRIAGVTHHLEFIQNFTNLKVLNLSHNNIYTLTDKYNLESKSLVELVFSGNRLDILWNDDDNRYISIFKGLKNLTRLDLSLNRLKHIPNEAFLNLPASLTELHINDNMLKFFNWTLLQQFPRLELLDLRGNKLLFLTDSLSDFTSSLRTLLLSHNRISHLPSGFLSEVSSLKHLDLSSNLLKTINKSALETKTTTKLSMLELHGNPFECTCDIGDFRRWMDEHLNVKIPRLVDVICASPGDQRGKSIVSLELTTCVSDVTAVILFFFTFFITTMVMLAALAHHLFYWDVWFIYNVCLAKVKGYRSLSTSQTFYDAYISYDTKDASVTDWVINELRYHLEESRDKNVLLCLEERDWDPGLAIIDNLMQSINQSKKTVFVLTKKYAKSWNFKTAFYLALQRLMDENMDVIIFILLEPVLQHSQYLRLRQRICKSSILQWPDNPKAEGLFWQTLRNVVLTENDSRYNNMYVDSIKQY
# [7] = Metabolic stability in mouse liver microsomes assessed as intrinsic clearance incubated for 60 mins by LC-MS/MS analysis
# [8] = Metabolic stability in mouse liver microsomes assessed as hepatic extraction ratio incubated for 60 mins by LC-MS/MS analysis
# [9] = Metabolic stability in human liver microsomes assessed as half life incubated for 60 mins by LC-MS/MS analysis
# physchem = conditions: buffer, pH 7.4
# Description: Aqueous solubility of compound at pH 7.4 measured after 18 hrs by UV-spectrometry
# [10] = metabolic stability in human liver microsomes assessed as hepatic extraction ratio incubated for 60 mins by LC-MS/MS analysis
# [11] = Stability in human plasma measured after 2 hrs by LC-MS/MS analysis
Compound,IC50 (Toll-like receptor 7) [µM],IC50 (Toll-like receptor 9) [µM],also measured
CCN1CCN(CCCn2cnc3c(N4CCN(C(=O)c5ccccc5)CC4)nc(NCc4ccc(F)cc4)nc32)CC1,> 30,> 30,–
CCN1CCN(CCCn2cnc3c(N4CCN(C5CCCC5)CC4)nc(N)nc32)CC1,13.2,0.28,–
CCN1CCN(c2nc(NCc3ccc(F)cc3)nc3c2ncn3CCCN2CCCC2)CC1,–,0.04,IC50 (Toll-like receptor 8): > 30 µM
CCN1CCN(CCCn2cnc3c(N4CCN(CC)CC4)nc(N)nc32)CC1,16.2,0.26,–
CCN1CCN(CCCn2cnc3c(N4CCN(C5CCCC5)CC4)nc(NCc4ccc(F)cc4)nc32)CC1,> 30,0.25,–
CCN1CCN(CCCn2cnc3c(N4CCN(C(=O)c5ccccc5)CC4)nc(N4CCCC4)nc32)CC1,> 30,> 30,–
CCN1CCN(CCCn2cnc3c(N4CCN(C(=O)C5CCCC5)CC4)nc(NCc4ccc(F)cc4)nc32)CC1,> 30,> 30,–
CCN1CCN(CCCn2cnc3c(N4CCN(C(=O)c5ccccc5)CC4)nc(N)nc32)CC1,> 30,> 30,–
CCN1CCN(CCCn2cnc3c(N4CCN(C5CCCC5)CC4)nc(NC(=O)c4ccc(CN(C)C)cc4)nc32)CC1,–,0.06,IC50 (Toll-like receptor 8): > 30 µM
COc1ccc(CNc2nc(N3CCN(C4CCCC4)CC3)c3ncn(CCCN4CCCC4)c3n2)cc1,11.6,–,–
CCN1CCN(c2nc(NCc3ccc(OC)cc3)nc3c2ncn3CCCN2CCCC2)CC1,–,–,IC50 (Toll-like receptor 8): > 30 µM
CCN1CCN(CCCn2cnc3c(N4CCN(CC)CC4)nc(NCc4ccc(F)cc4)nc32)CC1,10.1,–,–
CCN1CCN(CCCn2cnc3c(N4CCN(C(=O)C5CCCC5)CC4)nc(N)nc32)CC1,> 30,> 30,–
CCN1CCN(c2nc(NCc3ccc(CN(C)C)cc3)nc3c2ncn3CCCN2CCCC2)CC1,17.8,0.09,"microsomal CLint at 1 h [7]: 4.74 µL/min/mg; hepatic extraction ratio at 1 h [8]: 0.114; half-life at 1 h [9]: 1.87 h; solubility at 18 h (physchem): 136 µg/mL; hepatic extraction ratio at 1 h [10]: 0.241; Papp A→B at 10 min, 10 µM [1]: 92.2 ×10⁻⁶ cm/s; efflux ratio at 10 min [2]: 0.7; remaining at 1 h [3]: 50.7%; microsomal CLint at 1 h [4]: 7.1 µL/min/mg; remaining at 2 h [5]: 22%; Papp B→A at 10 min, 10 µM [6]: 61.2 ×10⁻⁶ cm/s; remaining at 2 h [11]: 58%"
CCN1CCN(CCCn2cnc3c(N4CCN(C5CCCC5)CC4)nc(NCc4ccc(OC)cc4)nc32)CC1,> 30,–,–
CCN1CCN(CCCn2cnc3c(N4CCN(C(=O)c5ccccc5)CC4)nc(NCc4ccc(OC)cc4)nc32)CC1,> 30,> 30,–
CCN1CCN(CCCn2cnc3c(N4CCN(C(=O)C5CCCC5)CC4)nc(NCc4ccc(OC)cc4)nc32)CC1,> 30,> 30,–

# More lines, in order of falling IC50 (Toll-like receptor 7), values ahead:
IC50 (Toll-like receptor 7) [µM],IC50 (Toll-like receptor 9) [µM],Compound,also measured
8.49,0.5,CCN1CCN(CCCn2cnc3c(N4CCN(CC)CC4)nc(N4CCCC4)nc32)CC1,–
8.4,3.4,CCN1CCN(CCCn2cnc3c(N4CCN(C(=O)c5ccccc5)CC4)nc(NCc4ccc(N(CC)CC)cc4)nc32)CC1,–
8.13,0.15,CCN1CCN(CCCn2cnc3c(N4CCN(C5CCCC5)CC4)nc(NCc4ccc(N(CC)CC)cc4)nc32)CC1,–
7.74,–,CCN1CCN(CCCn2cnc3c(N4CCN(CC)CC4)nc(NC(=O)c4ccccc4)nc32)CC1,–
7.59,–,CCN1CCN(CCCn2cnc3c(N4CCN(CC)CC4)nc(NCc4ccccc4)nc32)CC1,–
5.22,0.2,CCN1CCN(CCCn2cnc3c(N4CCN(CC)CC4)nc(NCc4ccc(OC)cc4)nc32)CC1,–
4.94,0.19,CCN1CCN(c2nc(N)nc3c2ncn3CCCN2CCCC2)CC1,–
4.88,0.12,Nc1nc(N2CCN(C3CCCC3)CC2)c2ncn(CCCN3CCCC3)c2n1,–
4.78,1.19,CCN1CCN(CCCn2cnc3c(N4CCN(CC)CC4)ncnc32)CC1,"Papp A→B at 10 min, 10 µM [1]: 3.57 ×10⁻⁶ cm/s; efflux ratio at 10 min [2]: 2.6; remaining at 1 h [3]: 75.8%; microsomal CLint at 1 h [4]: 7.81 µL/min/mg; remaining at 2 h [5]: 99%; Papp B→A at 10 min, 10 µM [6]: 9.28 ×10⁻⁶ cm/s"

# From ChEMBL document CHEMBL5036327, “Systematic Optimization of Potent and Orally Bioavailable Purine Scaffold as a Dual Inhibitor of Toll-Like Receptors 7 and 9” (J Med Chem, 2021)
